In ChEMBL document CHEMBL1201862, “PubChem BioAssay data set” (2004):
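Tested at 5 concentrations; 48 h exposure; 96-well plates; endpoints linearly interpolated, else capped at highest concentration. At the GI50, growth is halved.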 Calls of active or inactive are those of the source. No stated cut-off is given here; in the data, active = GI50 up to about 1.1 µM and inactive = higher.

Experiments:
Test in all cases: NCI tumour cell line growth inhibition, 48 h
[1] = tested on: A549
[2] = tested on: UACC-62
[3] = tested on: UO-31
[4] = tested on: MDA-MB-435
[5] = tested on: DU-145
[6] = tested on: NCI-H226
[7] = tested on: HT-29
[8] = tested on: 786-0
[9] = tested on: TK-10
[10] = tested on: MOLT-4
[11] = tested on: U-251
[12] = tested on: LOX IMVI
[13] = tested on: HCT-116
[14] = tested on: SK-MEL-2
[15] = tested on: RPMI-8226
[16] = tested on: UACC-257
[17] = tested on: HCT-15
[18] = tested on: Malme-3M
[19] = tested on: SF-295
[20] = tested on: SR

Compound	GI50 [1]	GI50 [2]	GI50 [3]	GI50 [4]	GI50 [5]	GI50 [6]	GI50 [7]	GI50 [8]	GI50 [9]	GI50 [10]	GI50 [11]	GI50 [12]	GI50 [13]	GI50 [14]	GI50 [15]	GI50 [16]	GI50 [17] [µM]	GI50 [18]	GI50 [19]	GI50 [20]
Cc1ccc(NC(=O)CC(=O)n2nc(C)c(/N=N/c3ccc(S(=O)(=O)CCOS(=O)(=O)O)cc3)c2C)cc1	> 100 µM (inactive)	> 100 µM (inactive)	> 100 µM (inactive)	> 100 µM (inactive)	> 100 µM (inactive)	> 100 µM (inactive)	> 100 µM (inactive)	> 100 µM (inactive)	> 100 µM (inactive)	> 100 µM (inactive)	> 100 µM (inactive)	> 100 µM (inactive)	> 100 µM (inactive)	> 100 µM (inactive)	> 100 µM (inactive)	80 µM (inactive)	> 10	> 100 µM (inactive)	97.1 µM (inactive)	
O=C(C#CP(=O)(O)c1ccccc1)c1ccccc1	> 100 µM (inactive)	> 100 µM (inactive)	< 0.01 µM (active)	> 100 µM (inactive)	> 100 µM (inactive)		> 100 µM (inactive)	> 100 µM (inactive)	> 100 µM (inactive)		> 100 µM (inactive)	> 100 µM (inactive)	> 100 µM (inactive)	> 100 µM (inactive)		> 100 µM (inactive)	> 100	> 100 µM (inactive)	> 100 µM (inactive)	> 100 µM (inactive)
O=C1C(=O)N(c2ccc(Cl)c(Cl)c2)C(=O)C(=O)C1c1nc2ccccc2s1	> 100 µM (inactive)	> 100 µM (inactive)	> 100 µM (inactive)			88.7 µM (inactive)	> 100 µM (inactive)	> 100 µM (inactive)	> 100 µM (inactive)	> 100 µM (inactive)	> 100 µM (inactive)	> 100 µM (inactive)	> 100 µM (inactive)	> 100 µM (inactive)	> 100 µM (inactive)	> 100 µM (inactive)	87.1	> 100 µM (inactive)	> 100 µM (inactive)	> 100 µM (inactive)
FC(F)(Sc1ncccn1)c1nc2ccccc2o1	> 100 µM (inactive)	> 100 µM (inactive)	99.3 µM (inactive)	99.1 µM (inactive)	> 100 µM (inactive)	> 100 µM (inactive)	> 100 µM (inactive)	> 100 µM (inactive)	> 100 µM (inactive)	57.3 µM (inactive)	55.5 µM (inactive)		84.3 µM (inactive)	> 100 µM (inactive)	> 100 µM (inactive)	> 100 µM (inactive)	> 100	> 100 µM (inactive)	> 100 µM (inactive)	37.8 µM (inactive)
Cc1ccc2c(c1)SC1=Nc3sc4cc(C)ccc4[n+]3CN12	2.68 µM (inactive)	3.4 µM (inactive)	35.6 µM (inactive)	4.22 µM (inactive)	24.1 µM (inactive)	15.8 µM (inactive)	6.82 µM (inactive)	32.2 µM (inactive)	14.9 µM (inactive)	< 0.01 µM (active)	2.58 µM (inactive)	21 µM (inactive)	10.5 µM (inactive)	3.51 µM (inactive)	1.81 µM (inactive)	2.18 µM (inactive)	40.5	0.568 µM (active)		
COc1cccc(/C=C2\CCC(C)(CN(C)C)C2=O)c1 (configuration not stated)	> 100 µM (inactive)	> 100 µM (inactive)	81.5 µM (inactive)			> 100 µM (inactive)	53.3 µM (inactive)	> 100 µM (inactive)	> 100 µM (inactive)	48.6 µM (inactive)	> 100 µM (inactive)	> 100 µM (inactive)	58.2 µM (inactive)	> 100 µM (inactive)	28.4 µM (inactive)	> 100 µM (inactive)	35.6	> 100 µM (inactive)	> 100 µM (inactive)	74.3 µM (inactive)
CC1=NN2C(c3ccc([N+](=O)[O-])cc3)=CSC2=NC(C)(C)C1	> 100 µM (inactive)	> 100 µM (inactive)	88.1 µM (inactive)			> 100 µM (inactive)	> 100 µM (inactive)	> 100 µM (inactive)	> 100 µM (inactive)	> 100 µM (inactive)	> 100 µM (inactive)	> 100 µM (inactive)	> 100 µM (inactive)	> 100 µM (inactive)	> 100 µM (inactive)	> 100 µM (inactive)	> 100	> 100 µM (inactive)	> 100 µM (inactive)	> 100 µM (inactive)
CC(O)(c1ccccc1)c1nccc2ccccc12 (configuration not stated)	87.3 µM (inactive)	50.6 µM (inactive)	51.3 µM (inactive)	18.2 µM (inactive)	> 100 µM (inactive)	31.5 µM (inactive)	74.3 µM (inactive)	> 100 µM (inactive)	> 100 µM (inactive)	41.9 µM (inactive)	45.5 µM (inactive)	75.9 µM (inactive)	61.4 µM (inactive)		37.3 µM (inactive)	> 100 µM (inactive)	53	64.1 µM (inactive)	55 µM (inactive)	
O=C([O-])Cc1ccccc1.[Na+] [SODIUM PHENYLACETATE]	1410 µM (inactive)	1370 µM (inactive)	929 µM (inactive)	1000 µM (inactive)		447 µM (inactive)	931 µM (inactive)	1070 µM (inactive)	1130 µM (inactive)	289 µM (inactive)	729 µM (inactive)	1160 µM (inactive)		> 2000 µM (inactive)	413 µM (inactive)	> 2000 µM (inactive)	703	706 µM (inactive)	843 µM (inactive)	200 µM (inactive)
COC(=O)Cc1c(C2C(CC(=O)OC)c3ccccc3N2C2OC(CO)C(O)C(O)C2O)[nH]c2ccccc12 (configuration not stated)	> 100 µM (inactive)	> 100 µM (inactive)	> 100 µM (inactive)	> 100 µM (inactive)	> 100 µM (inactive)		> 100 µM (inactive)		> 100 µM (inactive)	> 100 µM (inactive)	> 100 µM (inactive)		> 100 µM (inactive)	> 100 µM (inactive)	> 100 µM (inactive)	> 100 µM (inactive)	> 100	> 100 µM (inactive)	> 100 µM (inactive)	> 100 µM (inactive)
O=C(CCN(C(=O)O)S(=O)(=O)c1ccc(NC(=O)c2ccccc2)cc1)Nc1ccccc1	> 46.5 µM (inactive)	> 61.9 µM (inactive)	> 100 µM (inactive)			> 100 µM (inactive)	> 94.2 µM (inactive)	> 100 µM (inactive)	> 100 µM (inactive)	> 64.6 µM (inactive)	> 75.7 µM (inactive)	> 57.7 µM (inactive)	> 56.6 µM (inactive)	> 100 µM (inactive)	> 64.1 µM (inactive)	> 65.3 µM (inactive)	> 58.6	> 100 µM (inactive)	> 100 µM (inactive)	15.8 µM (inactive)
COc1ccc(-c2cc(-c3ccccc3)nc(N)n2)c(O)c1	12.8 µM (inactive)	> 28.9 µM (inactive)	2.13 µM (inactive)	3.56 µM (inactive)		> 100 µM (inactive)	> 26.9 µM (inactive)	> 100 µM (inactive)	> 100 µM (inactive)	4.16 µM (inactive)	12.6 µM (inactive)	6.78 µM (inactive)	> 100 µM (inactive)	7.08 µM (inactive)	2.31 µM (inactive)	> 100 µM (inactive)	6.03	> 100 µM (inactive)	> 86.1 µM (inactive)	4.3 µM (inactive)
CC1=C(N2CC2)C(=O)C(CO)=C(N2CC2)C1=O		0.022 µM (active)	0.0101 µM (active)		< 0.01 µM (active)	0.0506 µM (active)	0.0132 µM (active)	< 0.0321 µM (active)	0.0258 µM (active)	0.0129 µM (active)	0.0141 µM (active)	< 0.01 µM (active)	< 0.0291 µM (active)		< 0.0142 µM (active)	0.0923 µM (active)	0.0151	0.0357 µM (active)	0.013 µM (active)	< 0.01 µM (active)
CC1(C)N=C(N)N=C(N)N1c1cccc(OCc2cccc([N+](=O)[O-])c2)c1	4.18 µM (inactive)	6.11 µM (inactive)	> 100 µM (inactive)	17.7 µM (inactive)	> 38.5 µM (inactive)	> 100 µM (inactive)	6.03 µM (inactive)	5.78 µM (inactive)	18.7 µM (inactive)	1.22 µM (inactive)	2.88 µM (inactive)	9.27 µM (inactive)	5.41 µM (inactive)	> 64.3 µM (inactive)	32.7 µM (inactive)	4.29 µM (inactive)	> 100	> 53.1 µM (inactive)	> 55.7 µM (inactive)	
O=c1[nH][nH]c(=O)n1Cc1ccccc1Cn1c(=O)[nH][nH]c1=O	> 100 µM (inactive)	> 100 µM (inactive)	> 100 µM (inactive)	> 100 µM (inactive)	> 100 µM (inactive)	> 100 µM (inactive)	> 100 µM (inactive)	> 100 µM (inactive)	> 100 µM (inactive)	> 100 µM (inactive)	> 100 µM (inactive)	> 100 µM (inactive)	> 100 µM (inactive)	> 100 µM (inactive)	> 100 µM (inactive)	> 100 µM (inactive)	> 100	> 100 µM (inactive)	> 100 µM (inactive)	
